Biological target: RIPK1 (Homo sapiens (Human), UniProt Q13546)
Experiment: RIPK1-ADP-Glo Enzymatic Assay
Format: biochemical
Details: recombinant GST-RIPK1 kinase domain (residues 1-327), 25 nM, ten-point titration, 30 minutes pre-incubation
Method in brief: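 GST-RIPK1 kinase domain (residues 1-327, Sf21-expressed; 25 nM final) was pre-incubated 30 min at ambient temperature with compound (10-point 1:3 series from 100000 nM, 1% DMSO) in HEPES pH 7.3 buffer with 20 mM MgCl2. The reaction was started with 900 μM ATP (addition solution) and 3 μM dephosphorylated MBP and ran 150 min. Read-out was ADP-Glo luminescence, with EC50 from a four-parameter fit.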

Sequence of RIPK1 (Q13546 1-327): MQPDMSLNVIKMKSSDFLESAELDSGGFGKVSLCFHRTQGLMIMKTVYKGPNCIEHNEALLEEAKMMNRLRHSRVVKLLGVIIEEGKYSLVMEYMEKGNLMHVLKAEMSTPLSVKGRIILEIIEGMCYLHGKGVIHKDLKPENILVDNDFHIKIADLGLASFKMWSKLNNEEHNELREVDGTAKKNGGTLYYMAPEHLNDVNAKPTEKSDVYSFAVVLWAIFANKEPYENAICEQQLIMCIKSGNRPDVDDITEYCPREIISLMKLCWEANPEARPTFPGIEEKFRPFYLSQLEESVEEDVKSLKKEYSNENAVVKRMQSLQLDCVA

| EC50 | SMILES |
| --- | --- |
| 0.03 µM | O=C1N2[C@H](c3cc(F)cc(F)c3)CCN2CC12CCN(c1nccn3ncnc13)CC2 [Example 1.79, (S)-1-([1,2,4]triazolo[1,5-a]pyrazin-8-yl)-7′-(3,5-difluorophenyl)dihydro-1′H,3′H,5′H-spiro[piperidine-4,2′-pyrazolo[1,2-a]pyrazol]-1′-one] |
| 0.05 µM | O=C1N2[C@H](c3cc(F)cc(F)c3)CCN2CC12CCN(c1nc3ccccc3o1)CC2 [Example 1.80, (S)-1-(benzo[d]oxazol-2-yl)-7′-(3,5-difluorophenyl)dihydro-1′H,3′H,5′H-spiro[piperidine-4,2′-pyrazolo[1,2-a]pyrazol]-1′-one] |
| 0.366 µM | O=C1N2[C@H](c3cc(F)cc(F)c3)CCN2CC12CCN(c1noc3ccccc13)CC2 [Example 1.81, (S)-1-(benzo[d]isoxazol-3-yl)-7′-(3,5-difluorophenyl)dihydro-1′H,3′H,5′H-spiro[piperidine-4,2′-pyrazolo[1,2-a]pyrazol]-1′-one] |
| 0.333 µM | O=C1N2[C@H](c3cc(F)cc(F)c3)CCN2CC12CCN(c1nnc(-c3ccccc3)o1)CC2 [Example 1.82, (S)-7′-(3,5-difluorophenyl)-1-(5-phenyl-1,3,4-oxadiazol-2-yl)dihydro-1′H,3′H,5′H-spiro[piperidine-4,2′-pyrazolo[1,2-a]pyrazol]-1′-one] |
| 0.028 µM | COc1cc(N2CCC3(CC2)CN2CC[C@@H](c4cc(F)cc(F)c4)N2C3=O)ncn1 [Example 1.83, (S)-7′-(3,5-difluorophenyl)-1-(6-methoxypyrimidin-4-yl)dihydro-1′H,3′H,5′H-spiro[piperidine-4,2′-pyrazolo[1,2-a]pyrazol]-1′-one] |
| 0.03 µM | COc1nccc(N2CCC3(CC2)CN2CC[C@@H](c4cc(F)cc(F)c4)N2C3=O)n1 [Example 1.84, (S)-7′-(3,5-difluorophenyl)-1-(2-methoxypyrimidin-4-yl)dihydro-1′H,3′H,5′H-spiro[piperidine-4,2′-pyrazolo[1,2-a]pyrazol]-1′-one] |
| 0.022 µM | COc1nc(N2CCC3(CC2)CN2CC[C@@H](c4cc(F)cc(F)c4)N2C3=O)ncc1F [Example 1.85, (S)-7′-(3,5-difluorophenyl)-1-(5-fluoro-4-methoxypyrimidin-2-yl)dihydro-1′H,3′H,5′H-spiro[piperidine-4,2′-pyrazolo[1,2-a]pyrazol]-1′-one] |
| 0.555 µM | CNC(=O)c1cc(N2CCC3(CC2)CN2CC[C@@H](c4cc(F)cc(F)c4)N2C3=O)ncn1 [Example 1.86, (S)-6-(7′-(3,5-difluorophenyl)-1′-oxodihydro-1′H,3′H,5′H-spiro[piperidine-4,2′-pyrazolo[1,2-a]pyrazol]-1-yl)-N-methylpyrimidine-4-carboxamide] |
| 0.006 µM | O=C1N2[C@H](c3cc(F)cc(F)c3)CCN2CC12CCN(c1cc(-c3cnn(C(F)F)c3)ncn1)CC2 [Example 1.87, (S)-1-(6-(1-(difluoromethyl)-1H-pyrazol-4-yl)pyrimidin-4-yl)-7′-(3,5-difluorophenyl)dihydro-1′H,3′H,5′H-spiro[piperidine-4,2′-pyrazolo[1,2-a]pyrazol]-1′-one] |
| 0.111 µM | CN(C)C(=O)c1ccnc(N2CCC3(CC2)CN2CC[C@@H](c4cc(F)cc(F)c4)N2C3=O)n1 [Example 1.88, (S)-2-(7′-(3,5-difluorophenyl)-1′-oxodihydro-1′H,3′H,5′H-spiro[piperidine-4,2′-pyrazolo[1,2-a]pyrazol]-1-yl)-N,N-dimethylpyrimidine-4-carboxamide] |
| 0.024 µM | COc1cc(N2CCC3(CC2)CN2CC[C@@H](c4cc(F)cc(F)c4)N2C3=O)ccn1 [Example 1.89, (S)-7′-(3,5-difluorophenyl)-1-(2-methoxypyridin-4-yl)dihydro-1′H,3′H,5′H-spiro[piperidine-4,2′-pyrazolo[1,2-a]pyrazol]-1′-one] |
| 0.106 µM | CNC(=O)c1ccnc(N2CCC3(CC2)CN2CC[C@@H](c4cc(F)cc(F)c4)N2C3=O)n1 [Example 1.90, (S)-2-(7′-(3,5-difluorophenyl)-1′-oxodihydro-1′H,3′H,5′H-spiro[piperidine-4,2′-pyrazolo[1,2-a]pyrazol]-1-yl)-N-methylpyrimidine-4-carboxamide] |
| 0.75 µM | Cn1cnc(N2CCC3(CC2)CN2CC[C@@H](c4cc(F)cc(F)c4)N2C3=O)cc1=O [Example 1.91, (S)-7′-(3,5-difluorophenyl)-1-(1-methyl-6-oxo-1,6-dihydropyrimidin-4-yl)dihydro-1′H,3′H,5′H-spiro [piperidine-4,2′-pyrazolo[1,2-a]pyrazol]-1′-one] |
| 0.091 µM | O=C1N2[C@H](c3cc(F)cc(F)c3)CCN2CC12CCN(c1nccc(C(F)(F)F)n1)CC2 [Example 1.92, (S)-7′-(3,5-difluorophenyl)-1-(4-(trifluoromethyl)pyrimidin-2-yl)dihydro-1′H,3′H,5′H-spiro[piperidine-4,2′-pyrazolo[1,2-a]pyrazol]-1′-one] |
| 0.017 µM | Cn1cc(-c2cc(N3CCC4(CC3)CN3CC[C@@H](c5cc(F)cc(F)c5)N3C4=O)ncn2)cn1 [Example 1.93, (S)-7′-(3,5-difluorophenyl)-1-(6-(1-methyl-1H-pyrazol-4-yl)pyrimidin-4-yl)dihydro-1′H,3′H,5′H-spiro[piperidine-4,2′-pyrazolo[1,2-a]pyrazol]-1′-one] |
| 0.085 µM | O=C1N2[C@H](c3cc(F)cc(F)c3)CCN2CC12CCN(c1cc(C(F)(F)F)ncn1)CC2 [Example 1.94, (S)-7′-(3,5-difluorophenyl)-1-(6-(trifluoromethyl)pyrimidin-4-yl)dihydro-1′H,3′H,5′H-spiro[piperidine-4,2′-pyrazolo[1,2-a]pyrazol]-1′-one] |
| 0.086 µM | COc1ccnc(N2CCC3(CC2)CN2CC[C@@H](c4cc(F)cc(F)c4)N2C3=O)n1 [Example 1.95, (S)-7′-(3,5-difluorophenyl)-1-(4-methoxypyrimidin-2-yl)dihydro-1′H,3′H,5′H-spiro[piperidine-4,2′-pyrazolo[1,2-a]pyrazol]-1′-one] |
| 0.571 µM | O=C1N2[C@H](c3cc(F)cc(F)c3)CCN2CC12CCN(c1cnnc(Cl)c1)CC2 [Example 1.96, (S)-1-(6-chloropyridazin-4-yl)-7′-(3,5-difluorophenyl)dihydro-1′H,3′H,5′H-spiro[piperidine-4,2′-pyrazolo[1,2-a]pyrazol]-1′-one] |
| 0.009 µM | N#Cc1ccc(N2CCC3(CC2)CN2CC[C@@H](c4cc(F)cc(F)c4)N2C3=O)c2ccnn12 [Example 2.2, (S)-4-(7′-(3,5-difluorophenyl)-1′-oxodihydro-l′H,3′H,5′H-spiro[piperidine-4,2′-pyrazolo[1,2-a]pyrazol]-1-yl)pyrazolo[1,5-a]pyridine-7-carbonitrile] |
| 0.501 µM | Cc1cc(N2CCC3(CC2)CN2CC[C@@H](c4cc(F)cc(F)c4)N2C3=O)ccn1 [Example 2.3, (S)-7′-(3,5-difluorophenyl)-1-(2-methylpyridin-4-yl)dihydro-l′H,3′H,5′H-spiro[piperidine-4,2′-pyrazolo[1,2-a]pyrazol]-1′-one] |
| 0.049 µM | N#Cc1cc(N2CCC3(CC2)CN2CC[C@@H](c4cc(F)cc(F)c4)N2C3=O)ccn1 [Example 2.4, (S)-4-(7′-(3,5-difluorophenyl)-1′-oxodihydro-l′H,3′H,5′H-spiro[piperidine-4,2′-pyrazolo[1,2-a]pyrazol]-1-yl)picolinonitrile] |

| SMILES | EC50 |
| --- | --- |
| O=C1N2[C@H](c3cc(F)cc(F)c3)CCN2CC12CCN(c1ccc(Br)c3ccnn13)CC2 [Example 2.1] | 0.0075 µM |
